Test results reported in patent US9340530B2, “Preparation and use of bicyclic himbacine derivatives as PAR-1 receptor antagonists” (Merck, Sharp & Dohme Corp., priority 2012, dated 2016).

These compounds were tested against PAR1 (Homo sapiens (Human), UniProt P25116) (assay: Par-1 FLIPR assay (calcium, HEK 293 cells, PAR1 activating peptide)). Details: PAR1 selective receptor-activating peptide at 80% activation.
Assay type: cell-based
Protocol: HEK 293 Cells were grown in media containing DMEM, 10% FBS pen/strep/L-Glutamine and non-essential amino acids. The cells were plated in 384-well PDL coated plates at 12000 cells/well and incubated overnight at 37° C./5% CO2. Media was then removed from the cells, which were then incubated with buffer (Hank's containing HEPES and Chaps) containing FLIPR calcium-5 dye, made with buffer containing probenecid, for 60 minutes at 37° C. Varying concentrations of compound in a final concentration of 5% DMSO were then added to the cells and incubated at 25° C. for 30 minutes. […] The FLIPR reads at an excitation wavelength of 480 nm and an emission wavelength of 535 nm, and performs 60 scans over a 1-2 min reading time. The data were analyzed by taking the peak signal over a portion of the range of the 60 scans and dividing this signal by the minimum signal for that same range.

Chain of PAR1 (P25116 22-425): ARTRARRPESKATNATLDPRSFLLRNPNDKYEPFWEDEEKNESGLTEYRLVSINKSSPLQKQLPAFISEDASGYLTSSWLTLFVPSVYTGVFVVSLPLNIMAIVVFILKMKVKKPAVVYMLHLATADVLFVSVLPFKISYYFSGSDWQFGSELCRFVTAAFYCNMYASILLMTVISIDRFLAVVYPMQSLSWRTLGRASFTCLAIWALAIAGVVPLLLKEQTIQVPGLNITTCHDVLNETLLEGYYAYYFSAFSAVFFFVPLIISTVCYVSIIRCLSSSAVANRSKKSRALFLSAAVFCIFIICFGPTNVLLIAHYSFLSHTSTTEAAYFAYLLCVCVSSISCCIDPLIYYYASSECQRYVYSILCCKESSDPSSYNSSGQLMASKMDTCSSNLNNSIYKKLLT

Compound	IC50
Cc1nnnn1[C@@]12CC(F)(F)[C@@H](C)[C@H](/C=C/c3ccc(-c4ccccc4C#N)cn3)[C@@H]1[C@@H](C)OC2=O [Example 34]	6.4 nM
C[C@H]1OC(=O)[C@]2(NC3CCC3)CC(F)(F)[C@@H](C)[C@H](/C=C/c3ccc(-c4ccccc4C#N)cn3)[C@H]12 [Example 36]	4.1 nM
C[C@H]1OC(=O)[C@]2(N(C)C)CC(F)(F)[C@@H](C)[C@H](/C=C/c3ccc(-c4ccccc4C#N)cn3)[C@H]12 [Example 37]	5.3 nM
CC1[C@H](/C=C/c2ccc(-c3ccccc3C#N)cn2)C2[C@@H](C)OC(=O)[C@]2(NCc2cccnc2)CC1(F)F (some centres unmarked) [Example 38]	4.7 nM
CC1[C@H](/C=C/c2ccc(-c3ccccc3C#N)cn2)C2[C@@H](C)OC(=O)[C@]2(NCc2ccncc2)CC1(F)F (some centres unmarked) [Example 40]	3.9 nM
CC1[C@H](/C=C/c2ccc(-c3ccccc3C#N)cn2)C2[C@@H](C)OC(=O)[C@]2(NCc2ncco2)CC1(F)F (some centres unmarked) [Example 41]	6.5 nM
C[C@H]1OC(=O)[C@]2(NCc3cnccn3)CC(F)(F)[C@@H](C)[C@H](/C=C/c3ccc(-c4ccccc4C#N)cn3)[C@H]12 [Example 45]	4.4 nM
C[C@H]1OC(=O)[C@]2(NCc3ccccn3)CC(F)(F)[C@@H](C)[C@H](/C=C/c3ccc(-c4ccccc4C#N)cn3)[C@H]12 [Example 46]	3.1 nM
C[C@H]1OC(=O)[C@]2(NCc3cncnc3)CC(F)(F)[C@@H](C)[C@H](/C=C/c3ccc(-c4ccccc4C#N)cn3)[C@H]12 [Example 47]	5.7 nM
C[C@H]1OC(=O)[C@]2(NCc3nccn3C)CC(F)(F)[C@@H](C)[C@H](/C=C/c3ccc(-c4ccccc4C#N)cn3)[C@H]12 [Example 48]	3 nM
C[C@H]1OC(=O)[C@]2(NC3COC3)CC(F)(F)[C@@H](C)[C@H](/C=C/c3ccc(-c4ccccc4C#N)cn3)[C@H]12 [Example 49]	10.4 nM
C[C@H]1OC(=O)[C@]2(NCC3CC3)CC(F)(F)[C@@H](C)[C@H](/C=C/c3ccc(-c4ccccc4C#N)cn3)[C@H]12 [Example 50]	2.7 nM
C[C@H]1OC(=O)[C@]2(NCC(C)(C)C)CC(F)(F)[C@@H](C)[C@H](/C=C/c3ccc(-c4ccccc4C#N)cn3)[C@H]12 [Example 51]	10.2 nM
C[C@H]1OC(=O)[C@]2(NCC(O)CCl)CC(F)(F)[C@@H](C)[C@H](/C=C/c3ccc(-c4ccccc4C#N)cn3)[C@H]12 (some centres unmarked) [Example 52]	4.3 nM
CC(=O)N[C@@]12CC(F)(F)[C@@H](C)[C@H](/C=C/c3ccc(-c4ccccc4C#N)cn3)[C@@H]1[C@@H](C)OC2=O [Example 53]	26 nM
C[C@H]1OC(=O)[C@]2(NC(=O)NC3CCC3)CC(F)(F)[C@@H](C)[C@H](/C=C/c3ccc(-c4ccccc4C#N)cn3)[C@H]12 [Example 54]	7.1 nM
C[C@H]1OC(=O)[C@]2(NC(=O)c3cccc(F)c3)CC(F)(F)[C@@H](C)[C@H](/C=C/c3ccc(-c4ccccc4C#N)cn3)[C@H]12 [Example 58]	3 nM
C[C@H]1OC(=O)[C@]2(NC(=O)c3ccc(Cl)nc3)CC(F)(F)[C@@H](C)[C@H](/C=C/c3ccc(-c4ccccc4C#N)cn3)[C@H]12 [Example 59]	3 nM
Cc1cc(C(=O)N[C@@]23CC(F)(F)[C@@H](C)[C@H](/C=C/c4ccc(-c5ccccc5C#N)cn4)[C@@H]2[C@@H](C)OC3=O)no1 [Example 60]	3.4 nM
Cc1oncc1C(=O)N[C@@]12CC(F)(F)[C@@H](C)[C@H](/C=C/c3ccc(-c4ccccc4C#N)cn3)[C@@H]1[C@@H](C)OC2=O [Example 61]	33.3 nM
C[C@H]1OC(=O)[C@]2(NC(=O)C3CC3)CC(F)(F)[C@@H](C)[C@H](/C=C/c3ccc(-c4ccccc4C#N)cn3)[C@H]12 [Example 66]	3.5 nM
CC1[C@H](/C=C/c2ccc(-c3ccccc3C#N)cn2)C2[C@@H](C)OC(=O)[C@@]2(NC(=O)c2ccn(C)n2)CC1(F)F (some centres unmarked) [Example 67]	3.7 nM
C[C@H]1OC(=O)[C@]2(S(C)(=O)=O)CC(F)(F)[C@@H](C)[C@H](/C=C/c3ccc(-c4ccccc4C#N)cn3)[C@H]12 [Example 70]	15.6 nM
C[C@H]1OC(=O)[C@]2(Br)CC(F)(F)[C@@H](C)[C@H](/C=C/c3ccc(-c4ccccc4C#N)cn3)[C@H]12 [Example 71]	4.8 nM
Cc1cccc(-c2ccc(/C=C/[C@@H]3[C@@H]4[C@@H](C)OC(=O)[C@]4(N)CC(F)(F)[C@H]3C)nc2)c1C#N [Example 73]	3.3 nM
C[C@H]1OC(=O)[C@]2(N)CC(F)(F)[C@@H](C)[C@H](/C=C/c3ccc(-c4ccccc4-c4nnn[nH]4)cn3)[C@H]12 [Example 74]	872 nM

The remaining lines, values ahead:

IC50	Compound
2.1 nM	C[C@H]1OC(=O)[C@]2(Cc3nnn(C)n3)CC(F)(F)[C@@H](C)[C@H](/C=C/c3ccc(-c4ccccc4Cl)cn3)C12 (some centres unmarked) [Example 29a]
1.4 nM	Cc1cn([C@@]23CC(F)(F)[C@@H](C)[C@H](/C=C/c4ccc(-c5ccccc5C#N)cn4)[C@@H]2[C@@H](C)OC3=O)nn1 [Example 32]
2.2 nM	CC1[C@H](/C=C/c2ccc(-c3ccccc3C#N)cn2)C2[C@@H](C)OC(=O)[C@]2(NCc2nccs2)CC1(F)F (some centres unmarked) [Example 39]
2.4 nM	CC1[C@H](/C=C/c2ccc(-c3ccccc3C#N)cn2)C2[C@@H](C)OC(=O)[C@]2(NCc2cocn2)CC1(F)F (some centres unmarked) [Example 42]
1.3 nM	C[C@H]1OC(=O)[C@]2(NCc3cncs3)CC(F)(F)[C@@H](C)[C@H](/C=C/c3ccc(-c4ccccc4C#N)cn3)[C@H]12 [Example 43]
1.6 nM	C[C@H]1OC(=O)[C@]2(NCc3cscn3)CC(F)(F)[C@@H](C)[C@H](/C=C/c3ccc(-c4ccccc4C#N)cn3)[C@H]12 [Example 44]
2.8 nM	C[C@H]1OC(=O)[C@]2(NC(=O)c3nccs3)CC(F)(F)[C@@H](C)[C@H](/C=C/c3ccc(-c4ccccc4C#N)cn3)[C@H]12 [Example 57]
1.7 nM	C[C@@H]1[C@H](/C=C/c2ccc(-c3ccccc3C#N)cn2)[C@H]2[C@@H](C)OC(=O)[C@]2(NC(=O)c2ccc(F)cc2)CC1(F)F [Example 62]
2.3 nM	C[C@H]1OC(=O)[C@]2(NC(=O)c3ccccc3)CC(F)(F)[C@@H](C)[C@H](/C=C/c3ccc(-c4ccccc4C#N)cn3)[C@H]12 [Example 63]
2.9 nM	C[C@H]1OC(=O)[C@]2(NC(=O)c3ccc(C#N)cc3)CC(F)(F)[C@@H](C)[C@H](/C=C/c3ccc(-c4ccccc4C#N)cn3)[C@H]12 [Example 64]
2.5 nM	CO[C@@]12CC(F)(F)[C@@H](C)[C@H](/C=C/c3ccc(-c4ccccc4C#N)cn3)[C@@H]1[C@@H](C)OC2=O [Example 72]
2.3 nM	C[C@H]1OC(=O)[C@]2(CN)CC(F)(F)[C@@H](C)[C@H](/C=C/c3ccc(-c4ccccc4C#N)cn3)[C@H]12 [Example 76]
